The structures appear in SMILES notation.

For this experiment, the system named is MM.1S cells. In words: Proliferation inhibition (IC50) in MM.1S cells, cell viability assay. As to conditions: Homo sapiens, MM1.S, 72 h, read-out: IC50 (nM), proliferation inhibitory activity of MM.1S cells (half inhibitory concentration).
Protocol: MM.1S (B lymphoblast) was purchased from ATCC. Complete medium was RPMI1640 supplemented with 10% FBS and 1% Penicillin-Streptomycin. The cells used were identified as correct cells by STR cells, and were negative for mycoplasma through routine inspections.
IC50 values of the compounds of the present disclosure were measured using Cell Titer Blue, Cell Titer GLO, or WST reagent from Promega Company. Assay details are as follows: Cells were seeded in 100 μL RPMI1640 complete medium containing serum at a density of 15,000 cells/well. After 24 h, the inoculated cells were treated with diluted commercial inhibitor and the compounds of the present disclosure to be tested after serial dilution. After the cells were treated with the compounds of the present disclosure to be tested for 72 h, cell viability was determined after adding the cell viability detection kit listed above according to the reagent operating instructions. The negative control was DMSO, and the positive control was a commercial inhibitor, both of which were used to treat the cells through the same method as that of the compounds of the present disclosure. The growth inhibition of the compounds of the present disclosure on cells was plotted by Prism Graphpad software, and the IC50 values of the compounds of the present disclosure were calculated therefrom.
We tested the activities of the compounds of the present invention in MM.1S cell (which overexpressed IKZF1/3 and is highly sensitive to immunomodulatory drugs) through a dose-dependent manner. The cells were treated with the compounds of the present invention at 10 different successively decreasing concentrations (starting at the highest concentration of 10 μM; 5-fold serial dilutions) for 72 h, and then the cell viability determination was performed in accordance with CCK-8 reagent operating instructions. The experiment was repeated more than three times.
With `O=C1CCC(N2Cc3c(SCCCCCCCNCC45CC6CC(CC(C6)C4)C5)cccc3C2=O)C(=O)N1` (stereo not shown) [SIAIS1220171, 3-(4-((7-(((adamantan-1-yl)methyl)amino)heptyl)thio)-1-oxoisoindolin-2-yl)piperidine-2,6-dione], the IC50 was determined as 0.044 ± 0.003 nM.
Next, `O=C1CCC(N2Cc3c(SCCCCCCNC45CC6CC(CC(C6)C4)C5)cccc3C2=O)C(=O)N1` (stereo not shown) [SIAIS1220177, 3-(4-((6-((adamantan-1-yl)amino)hexyl)thio)-1-oxoisoindolin-2-yl)piperidine-2,6-dione]: 0.041 ± 0.018 nM.
On to `O=C1CCC(N2Cc3c(SCCCCCCNC4C5CC6CC(C5)CC4C6)cccc3C2=O)C(=O)N1` (stereo not shown) [SIAIS1220179, 3-(4-((6-((adamantan-2-yl)amino)hexyl)thio)-1-oxoisoindolin-2-yl)piperidine-2,6-dione], for which the IC50 amounted to 0.036 ± 0.01 nM.
To `O=C1CCC(N2Cc3c(SCCCCCCNC4CCCCC4)cccc3C2=O)C(=O)N1` (stereo not shown) [SIAIS1220183, 3-(4-((6-(cyclohexylamino)hexyl)thio)-1-oxoisoindolin-2-yl)piperidine-2,6-dione] belongs 0.197 nM; to `O=C1CCC(N2Cc3c(SCCCCCCCNC4CCCCC4)cccc3C2=O)C(=O)N1` (stereo not shown) [SIAIS1220185, 3-(4-((7-(cyclohexylamino)heptyl)thio)-1-oxoisoindolin-2-yl)piperidine-2,6-dione], 0.026 ± 0.007 nM.
As to `O=C1CCC(N2Cc3c(SCCCCCCCNc4ccccc4)cccc3C2=O)C(=O)N1` (stereo not shown) [SIAIS1220187, 3-(1-oxo-4-((7-(phenylamino)heptyl)thio)isoindolin-2-yl)piperidine-2,6-dione], the IC50 is 0.598 nM.
To `CN(CCCCCCCSc1cccc2c1CN(C1CCC(=O)NC1=O)C2=O)c1ccccc1` (stereo not shown) [SIAIS1220189, 3-(4-((7-(methyl(phenyl)amino)heptyl)thio)-1-oxoisoindolin-2-yl)piperidine-2,6-dione] belongs 0.553 nM.
To `O=C1CCC(N2Cc3c(SCCCCCCCN4CCCCCCC4)cccc3C2=O)C(=O)N1` (stereo not shown) [SIAIS1220193, 3-(4-((7-(azocan-1-yl)heptyl)thio)-1-oxoisoindolin-2-yl)piperidine-2,6-dione] belongs 0.03 ± 0.01 nM.
Next, `O=C1CCC(N2Cc3c(SCCCCCCC(=O)NC45CC6CC(CC(C6)C4)C5)cccc3C2=O)C(=O)N1` (stereo not shown) [SIAIS1220195, N-(adamantan-1-yl)-7-((2-(2,6-dioxopiperidin-3-yl)-1-oxoisoindolin-4-yl)thio)heptanamide]: 0.048 nM.
On to `CC12CC3CC(C)(C1)CC(NC(=O)CCCCCCSc1cccc4c1CN(C1CCC(=O)NC1=O)C4=O)(C3)C2` (stereo not shown) [SIAIS1220197, N-(3,5-dimethyladamantan-1-yl)-7-((2-(2,6-dioxopiperidin-3-yl)-1-oxoisoindolin-4-yl)thio)heptanamide], for which the IC50 was 0.578 nM.
As to `O=C1CCC(N2Cc3c(SCCCCCCC(=O)NC4C5CC6CC(C5)CC4C6)cccc3C2=O)C(=O)N1` (stereo not shown) [SIAIS1220199, N-(adamantan-2-yl)-7-((2-(2,6-dioxopiperidin-3-yl)-1-oxoisoindolin-4-yl)thio)heptanamide], the IC50 was found to be 0.026 ± 0.001 nM.
For `O=C1CCC(N2Cc3c(SCc4ccc(CNC56CC7CC(CC(C7)C5)C6)cc4)cccc3C2=O)C(=O)N1` (stereo not shown) [SIAIS1221003, 3-(4-((4-(((adamantan-1-yl)amino)methyl)benzyl)thio)-1-oxoisoindolin-2-yl)piperidine-2,6-dione], the IC50 was determined as 0.024 ± 0.01 nM.
On to `O=C1CCC(N2Cc3c(SCc4ccc(CNC5C6CC7CC(C6)CC5C7)cc4)cccc3C2=O)C(=O)N1` (stereo not shown) [SIAIS1221005, 3-(4-((4-((adamantan-2-ylamino)methyl)benzyl)thio)-1-oxoisoindolin-2-yl)piperidine-2,6-dione], for which the IC50 was 0.035 ± 0.007 nM.
Next, `O=C1CCC(N2Cc3c(SCCCCCCNCC45CC6CC(CC(C6)C4)C5)cccc3C2=O)C(=O)N1` (stereo not shown) [SIAIS1221013, 3-(4-((6-((adamantan-1-ylmethyl)amino)hexyl)thio)-1-oxoisoindolin-2-yl)piperidine-2,6-dione]: 0.028 ± 0.012 nM.
As to `O=C1CCC(N2Cc3c(SCCCCCCCN4CCC5(CCCCC5)CC4)cccc3C2=O)C(=O)N1` (stereo not shown) [SIAIS1221015, 3-(4-((7-(3-azaspiro[5.5]undecan-3-yl)heptyl)thio)-1-oxoisoindolin-2-yl)piperidine-2,6-dione], the IC50 amounted to 0.04 ± 0.01 nM.
For the molecule `CC1(C)[C@@H]2CC[C@@]1(C)[C@@H](NCCCCCCCSc1cccc3c1CN(C1CCC(=O)NC1=O)C3=O)C2` (stereo partly drawn) [SIAIS1221019, 3-(1-oxo-4-((7-(((1R,2S,4R)-1,7,7-trimethylbicyclo[2.2.1]heptan-2-yl)amino)heptyl)thio)isoindolin-2-yl)piperidine-2,6-dione], the IC50 is 0.007 nM.
To `CC1CC(C)CN(CCCCCCCSc2cccc3c2CN(C2CCC(=O)NC2=O)C3=O)C1` (stereo not shown) [SIAIS1221021, 3-(4-((7-(3,5-dimethylpiperidin-1-yl)heptyl)thio)-1-oxoisoindolin-2-yl)piperidine-2,6-dione] belongs 0.047 ± 0.001 nM; to `O=C1CCC(N2Cc3c(SCCCCCCCSC45CC6CC(CC(C6)C4)C5)cccc3C2=O)C(=O)N1` (stereo not shown) [SIAIS1221025, 3-(4-((7-(adamantan-1-ylthio)heptyl)thio)-1-oxoisoindolin-2-yl)piperidine-2,6-dione], 0.061 nM; to `CC1(C)CCN(CCCCCCCSc2cccc3c2CN(C2CCC(=O)NC2=O)C3=O)CC1` (stereo not shown) [SIAIS1221027, 3-(4-((7-(4,4-dimethylpiperidin-1-yl)heptyl)thio)-1-oxoisoindolin-2-yl)piperidine-2,6-dione], 0.038 ± 0.006 nM.
To `CC1(C)CCC(NCCCCCCCSc2cccc3c2CN(C2CCC(=O)NC2=O)C3=O)CC1` (stereo not shown) [SIAIS1221029, 3-(4-((7-((4,4-dimethylcyclohexyl)amino)heptyl)thio)-1-oxoisoindolin-2-yl)piperidine-2,6-dione] belongs 0.025 nM.
To `O=C1CCC(N2C(=O)c3cccc(SCCCCCCCN4CCCCC4)c3C2=O)C(=O)N1` (stereo not shown) [SIAIS1221033, 2-(2,6-dioxopiperidin-3-yl)-4-((7-(piperidin-1-yl)heptyl)thio)isoindoline-1,3-dione] belongs 1.62 nM.
Turning to `O=C1CCC(N2C(=O)c3cccc(SCCCCCCCNC45CC6CC(CC(C6)C4)C5)c3C2=O)C(=O)N1` (stereo not shown) [SIAIS1221069, 4-((7-((adamantan-1-yl)amino)heptyl)thio)-2-(2,6-dioxopiperidin-3-yl)isoindoline-1,3-dione], the IC50 turned out to be 0.02 nM.
Next, `O=C1CCC(N2Cc3c(SCc4ccc(CNC5CCCCC5)cc4)cccc3C2=O)C(=O)N1` (stereo not shown) [SIAIS1221071, 3-(4-((4-((cyclohexylamino)methyl)benzyl)thio)-1-oxoisoindolin-2-yl)piperidine-2,6-dione]: 0.072 ± 0.004 nM; `O=C1CCC(N2C(=O)c3ccc(SCCCCCCCNC45CC6CC(CC(C6)C4)C5)cc3C2=O)C(=O)N1` (stereo not shown) [SIAIS1221075, 5-((7-((adamantan-1-yl)amino)heptyl)thio)-2-(2,6-dioxopiperidin-3-yl)isoindoline-1,3-dione]: 15.8 nM; `CC1(C)[C@@H]2CC[C@@]1(C)[C@@H](NCCCCCSc1cccc3c1CN(C1CCC(=O)NC1=O)C3=O)C2` (stereo partly drawn) [SIAIS1221113, 3-(1-oxo-4-((5-(((1R,2S,4R)-1,7,7-trimethylbicyclo[2.2.1]heptan-2-yl)amino)pentyl)thio)isoindolin-2-yl)piperidine-2,6-dione]: 0.027 nM.
Consider `CC1(C)[C@@H]2CC[C@@]1(C)[C@@H](NCCCCCCSc1cccc3c1CN(C1CCC(=O)NC1=O)C3=O)C2` (stereo partly drawn) [SIAIS1221115, 3-(1-oxo-4-((6-(((1R,2S,4R)-1,7,7-trimethylbicyclo[2.2.1]heptan-2-yl)amino)hexyl)thio)isoindolin-2-yl)piperidine-2,6-dione], for which the IC50 stood at 0.082 nM.
Next, `O=C1CCC(N2Cc3c(SCCCCCNC45CC6CC(CC(C6)C4)C5)cccc3C2=O)C(=O)N1` (stereo not shown) [SIAIS1221117, 3-(4-((5-((adamantan-1-yl)amino)pentyl)thio)-1-oxoisoindolin-2-yl)piperidine-2,6-dione]: 0.06 nM.
To `O=C1CCC(N2Cc3c(SCCCCCCN4CCC5(CCCCC5)CC4)cccc3C2=O)C(=O)N1` (stereo not shown) [SIAIS1221121, 3-(4-((6-(3-azaspiro[5.5]undecan-3-yl)hexyl)thio)-1-oxoisoindolin-2-yl)piperidine-2,6-dione] belongs 0.057 nM; to `O=C1CCC(N2Cc3c(SCCCCCN4CCC5(CCCCC5)CC4)cccc3C2=O)C(=O)N1` (stereo not shown) [SIAIS1221123, 3-(4-((5-(3-azaspiro[5.5]undecan-3-yl)pentyl)thio)-1-oxoisoindolin-2-yl)piperidine-2,6-dione], 0.051 nM; to `CN(CCCCCCCSc1cccc2c1CN(C1CCC(=O)NC1=O)C2=O)C1CCC(C)(C)CC1` (stereo not shown) [SIAIS1221125, 3-(4-((7-((4,4-dimethylcyclohexyl)(methyl)amino)heptyl)thio)-1-oxoisoindolin-2-yl)piperidine-2,6-dione], 0.035 nM.
To `CN(CCCCCCSc1cccc2c1CN(C1CCC(=O)NC1=O)C2=O)CC12CC3CC(CC(C3)C1)C2` (stereo not shown) [SIAIS1221127, 3-(4-((6-((adamantan-1-ylmethyl)(methyl)amino)hexyl)thio)-1-oxoisoindolin-2-yl)piperidine-2,6-dione] belongs 0.059 nM; to `CN(CCCCCCCSc1cccc2c1CN(C1CCC(=O)NC1=O)C2=O)[C@H]1C[C@H]2CC[C@]1(C)C2(C)C` (stereo partly drawn) [SIAIS1221129, 3-(4-((7-(methyl((1R,2S,4R)-1,7,7-trimethylbicyclo[2.2.1]heptan-2-yl)amino)heptyl)thio)-1-oxoisoindolin-2-yl)piperidine-2,6-dione], 0.021 nM; to `CC1(C)[C@@H]2CC[C@@]1(C)[C@@H](NCc1ccc(CSc3cccc4c3C(=O)N(C3CCC(=O)NC3=O)C4=O)cc1)C2` (stereo partly drawn) [SIAIS1221147, 2-(2,6-dioxopiperidin-3-yl)-4-((4-((((1R,2S,4R)-1,7,7-trimethylbicyclo[2.2.1]heptan-2-yl)amino)methyl)benzyl)thio)isoindoline-1,3-dione], 0.458 nM.
`CN1C(=O)CCC(N2Cc3c(SCCCCCCCNC45CC6CC(CC(C6)C4)C5)cccc3C2=O)C1=O` (stereo not shown) [SIAIS1221149, 3-(4-((7-(adamantan-1-ylamino)heptyl)thio)-1-oxoisoindolin-2-yl)-1-methylpiperidine-2,6-dione]: the IC50 is 21.9 nM.

Values taken from patent US12582641B2, “Sulfur-containing compound based on glutarimide skeleton and application thereof” (SHANGHAITECH UNIVERSITY, priority 2019, dated 2026).
